According to patent US10844038B2, “1,2-dithiolane compounds useful in neuroprotection, autoimmune and cancer diseases and conditions” (SABILA BIOSCIENCES LLC, priority 2016, dated 2020):

How the values were obtained:
[1] = biological target: Bruton Tyrosine Kinase (BTK) (Homo sapiens (Human), UniProt Q06187); assay: Rabbit reticulocyte lysate assay (KinaseSeeker competition binding); details: read-out: IC50 Activity Levels Against Bruton Tyrosine Kinase: BTK
Method: 1. Rabbit Reticulocyte Lysate Assay Design:
KinaseSeeker is a homogeneous competition binding assay where the displacement of an active site dependent probe by an inhibitor is measured by a change in luminescence signal. Luminescence readout translates into a highly sensitive and robust assay with low background and minimal interference from test compounds.
10 mM stock solutions of test compounds were serially diluted in DMSO to make assay stocks. Prior to initiating IC50 determinations, the test compounds were evaluated for false positive against split-luciferase.
Each test compound was screened in duplicate against target kinase at 7 different concentrations. For kinase assays, Cfluc-kinase was translated along with Fos-Nfluc using a cell-free system (rabbit reticulocyte lysate) at 30° C. for 90 min. 24 uL aliquot of this lysate containing either 1 uL of DMSO (for no-inhibitor control) or compound solution in DMSO was incubated for 30 minutes at room temperature followed by 1 hour in presence of a kinase specific probe. 80 uL of luciferin assay reagent was added to each solution and luminescence was immediately measured on a luminometer.
The % Inhibition and % Activity Remaining was calculated using the following equation: % Inhibition=[(ALUControl−ALUSample)/ALUControl]×100 % Activity Remaining=100−% Inhibition
The % Activity was plotted against compound concentration and the IC50 was determined for each compound using a 7-point curve (Jester, B. W.; et. al. J. Am. Chem. Soc. 2010, 132, 11727-11735. Jester, B. W., et. al. J. Med. Chem. 2012, 55, 1526-1537). Biological activity of representative compounds of the disclosure are described in Table 5.

FYN-Y531F = FYN-Y531F (Homo sapiens (Human), UniProt P06241, Y531F); assay: Radioisotope filter binding assay; assay type: biochemical; details: read-out: IC50 Activity Levels Against FYN Mutant: FYN-Y531F
Method: (§1) 3. Radioisotope Filter Binding Assay:
(§2) In this assay format, it directly detects the true product without the use of modified substrates or coupling enzymes (Uitdehaag, J. C., et al. Br. J. Pharmacol. 2012, 166, 858-876; Hastie, C. J., et al. Nat. Protoc. 2006, 1, 968-971) according to equation 1. Substrate+[γ−^33P]−ATP→^33P-Substrate+ADP eq 1
(§3) The protocol calls for test compound of the invention to be incubated with kinase, substrate, cofactors, and radio-isotope-labeled ATP (^33P-gamma-ATP). The reaction mixtures are then spotted onto filter papers which bind the radioisotope labeled catalytic product. Unreacted phosphate is removed via washing. The reagents used include base reaction buffer; 20 mM Hepes (pH 7.5), 10 mM MgCl2, 1 mM EGTA, 0.02% Brij35, 0.02 mg/ml BSA, 0.1 mM Na3VO4, 2 mM DTT, 1% DMSO. The reaction procedure include the following steps: (1) prepare indicated substrate in freshly prepared base reaction buffer, (2) deliver any required cofactors to the substrate solution above, (3) deliver indicated kinase into the substrate solution and gently mix, (4) deliver compounds in DMSO into the kinase reaction mixture by Acoustic technology (Echo550; nanoliter range), incubate for 20 minutes at room temperature, (5) deliver ^33P-ATP (specific activity 10 μCi/μL) into the reaction mixture to initiate the reaction, (6) incubate kinase reaction for 2 hours at room temperature, (7) reactions are spotted onto P81 ion exchange paper, (8) detect kinase activity by filter-binding method.

FGR = FGR (Homo sapiens (Human), UniProt P09769); assay: Radioisotope filter binding assay; assay type: biochemical; details: read-out: IC50 Activity Levels Against SRC Family Kinases: FGR
Method: as §1, §2, §3

LCK = LCK (Homo sapiens (Human), UniProt P06239); assay: Radioisotope filter binding assay; assay type: biochemical; details: read-out: IC50 Activity Levels Against SRC Family Kinases: LCK
Method: as §1, §2, §3

YES1 = YES1 (Homo sapiens (Human), UniProt P07947); assay: Radioisotope filter binding assay; assay type: biochemical; details: read-out: IC50 Activity Levels Against SRC Family Kinases: YES1
Method: as §1, §2, §3

BLK = BLK (Homo sapiens (Human), UniProt P51451); assay: Radioisotope filter binding assay; assay type: biochemical; details: read-out: IC50 Activity Levels Against SRC Family Kinases: BLK
Method: as §1, §2, §3

FYN = FYN (Homo sapiens (Human), UniProt P06241); assay: Radioisotope filter binding assay; assay type: biochemical; details: read-out: IC50 Activity Levels Against SRC Family Kinases: FYN
Method: as §1, §2, §3

CRAP = CRAP (Homo sapiens (Human), UniProt P04049); assay: Radioisotope filter binding assay; assay type: biochemical; details: read-out: IC50 Activity Levels Against MAPK Pathway Kinases: CRAP
Method: as §1, §2, §3

BRK = BRK (Homo sapiens (Human), UniProt Q13882); assay: Radioisotope filter binding assay; assay type: biochemical; details: read-out: IC50 Activity Levels Against FRK Family Kinases: BRK
Method: as §1, §2, §3

FLT3 = FLT3 (Homo sapiens (Human), UniProt P36888); assay: Radioisotope filter binding assay; assay type: biochemical; details: read-out: IC50 Activity Levels Against Type III NRT Kinases: FLT3
Method: as §1, §2, §3

ARAF = ARAF (Homo sapiens (Human), UniProt P10398); assay: Radioisotope filter binding assay; assay type: biochemical; details: read-out: IC50 Activity Levels Against MAPK Pathway Kinases: ARAF
Method: as §1, §2, §3

FLT3-ITD = assay: Radioisotope filter binding assay; assay type: biochemical; details: read-out: IC50 Activity Levels Against Type III NRT Kinases: FLT3-ITD
Method: as §1, §2, §3

HCK = HCK (Homo sapiens (Human), UniProt P08631); assay: Radioisotope filter binding assay; assay type: biochemical; details: read-out: IC50 Activity Levels Against SRC Family Kinases: HCK
Method: as §1, §2, §3

SRC = SRC (Homo sapiens (Human), UniProt P12931); assay: Radioisotope filter binding assay; assay type: biochemical; details: read-out: IC50 Activity Levels Against SRC Family Kinases: SRC
Method: as §1, §2, §3

LYN = LYN (Homo sapiens (Human), UniProt P07948); assay: Radioisotope filter binding assay; assay type: biochemical; details: read-out: IC50 Activity Levels Against SRC Family Kinases: LYN
Method: as §1, §2, §3

BTK = BTK (Homo sapiens (Human), UniProt Q06187); assay: Radioisotope filter binding assay; assay type: biochemical; details: read-out: IC50 Activity Levels Against Representative TEC Family Kinases: BTK
Method: as §1, §2, §3

Chain of ARAF (P10398 whole entry): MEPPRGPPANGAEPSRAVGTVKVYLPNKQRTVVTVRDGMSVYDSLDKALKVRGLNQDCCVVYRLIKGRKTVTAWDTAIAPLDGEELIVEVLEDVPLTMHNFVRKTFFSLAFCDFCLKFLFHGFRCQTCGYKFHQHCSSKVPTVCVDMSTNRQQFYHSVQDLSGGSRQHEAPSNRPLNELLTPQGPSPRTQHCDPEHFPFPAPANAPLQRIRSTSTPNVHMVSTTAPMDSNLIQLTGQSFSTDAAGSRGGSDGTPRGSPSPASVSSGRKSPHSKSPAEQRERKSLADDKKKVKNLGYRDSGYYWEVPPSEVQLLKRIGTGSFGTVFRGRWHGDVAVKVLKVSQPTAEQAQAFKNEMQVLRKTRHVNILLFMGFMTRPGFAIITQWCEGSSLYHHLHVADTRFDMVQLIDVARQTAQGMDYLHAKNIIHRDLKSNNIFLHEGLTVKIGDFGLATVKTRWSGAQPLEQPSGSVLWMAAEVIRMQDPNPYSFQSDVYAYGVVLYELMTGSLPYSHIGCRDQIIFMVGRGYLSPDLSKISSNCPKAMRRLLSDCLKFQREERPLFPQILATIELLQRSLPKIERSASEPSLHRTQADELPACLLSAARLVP
Chain of BLK (P51451 whole entry): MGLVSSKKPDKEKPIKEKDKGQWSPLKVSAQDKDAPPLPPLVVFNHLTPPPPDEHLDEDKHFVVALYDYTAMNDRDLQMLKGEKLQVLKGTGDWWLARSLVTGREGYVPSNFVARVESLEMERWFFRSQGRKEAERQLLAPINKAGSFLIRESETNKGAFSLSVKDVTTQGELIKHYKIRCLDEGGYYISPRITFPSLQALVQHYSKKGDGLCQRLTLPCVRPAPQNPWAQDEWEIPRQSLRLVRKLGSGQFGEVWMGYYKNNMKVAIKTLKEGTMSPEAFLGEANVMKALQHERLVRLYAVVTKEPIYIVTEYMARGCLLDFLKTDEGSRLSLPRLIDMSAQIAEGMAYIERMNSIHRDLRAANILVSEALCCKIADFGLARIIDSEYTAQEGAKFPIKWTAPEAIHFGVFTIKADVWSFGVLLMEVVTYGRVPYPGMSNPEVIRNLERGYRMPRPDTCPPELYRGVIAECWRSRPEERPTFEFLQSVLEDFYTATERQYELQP
Chain of FYN-Y531F (P06241 whole entry Y531F): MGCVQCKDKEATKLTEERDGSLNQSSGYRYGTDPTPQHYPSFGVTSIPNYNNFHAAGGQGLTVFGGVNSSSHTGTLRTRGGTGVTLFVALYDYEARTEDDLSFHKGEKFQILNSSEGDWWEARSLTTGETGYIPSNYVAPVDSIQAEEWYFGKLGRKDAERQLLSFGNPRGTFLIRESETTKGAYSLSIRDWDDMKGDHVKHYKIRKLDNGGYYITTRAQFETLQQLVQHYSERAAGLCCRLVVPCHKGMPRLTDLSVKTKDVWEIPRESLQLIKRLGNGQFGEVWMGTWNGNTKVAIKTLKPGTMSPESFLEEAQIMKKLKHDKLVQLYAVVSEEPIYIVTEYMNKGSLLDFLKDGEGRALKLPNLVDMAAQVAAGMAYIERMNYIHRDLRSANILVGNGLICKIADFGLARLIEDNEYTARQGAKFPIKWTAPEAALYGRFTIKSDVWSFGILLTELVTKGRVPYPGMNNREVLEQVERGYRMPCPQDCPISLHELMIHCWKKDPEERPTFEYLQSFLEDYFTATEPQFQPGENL
Chain of YES1 (P07947 whole entry): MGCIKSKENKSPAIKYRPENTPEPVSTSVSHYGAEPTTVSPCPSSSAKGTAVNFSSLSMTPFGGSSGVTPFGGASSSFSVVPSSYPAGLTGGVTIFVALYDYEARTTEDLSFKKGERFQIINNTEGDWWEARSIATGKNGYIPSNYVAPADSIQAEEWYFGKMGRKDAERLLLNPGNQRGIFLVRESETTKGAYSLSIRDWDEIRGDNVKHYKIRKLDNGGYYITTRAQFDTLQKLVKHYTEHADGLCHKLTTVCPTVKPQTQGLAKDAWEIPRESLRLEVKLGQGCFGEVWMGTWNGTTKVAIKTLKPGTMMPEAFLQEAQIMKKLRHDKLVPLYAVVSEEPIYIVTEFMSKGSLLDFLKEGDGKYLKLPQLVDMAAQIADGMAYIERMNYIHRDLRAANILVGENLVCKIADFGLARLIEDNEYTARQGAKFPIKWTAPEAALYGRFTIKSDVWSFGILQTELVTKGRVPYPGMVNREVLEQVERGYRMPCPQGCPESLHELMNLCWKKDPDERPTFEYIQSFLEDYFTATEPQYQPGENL
Chain of FLT3 (P36888 27-993): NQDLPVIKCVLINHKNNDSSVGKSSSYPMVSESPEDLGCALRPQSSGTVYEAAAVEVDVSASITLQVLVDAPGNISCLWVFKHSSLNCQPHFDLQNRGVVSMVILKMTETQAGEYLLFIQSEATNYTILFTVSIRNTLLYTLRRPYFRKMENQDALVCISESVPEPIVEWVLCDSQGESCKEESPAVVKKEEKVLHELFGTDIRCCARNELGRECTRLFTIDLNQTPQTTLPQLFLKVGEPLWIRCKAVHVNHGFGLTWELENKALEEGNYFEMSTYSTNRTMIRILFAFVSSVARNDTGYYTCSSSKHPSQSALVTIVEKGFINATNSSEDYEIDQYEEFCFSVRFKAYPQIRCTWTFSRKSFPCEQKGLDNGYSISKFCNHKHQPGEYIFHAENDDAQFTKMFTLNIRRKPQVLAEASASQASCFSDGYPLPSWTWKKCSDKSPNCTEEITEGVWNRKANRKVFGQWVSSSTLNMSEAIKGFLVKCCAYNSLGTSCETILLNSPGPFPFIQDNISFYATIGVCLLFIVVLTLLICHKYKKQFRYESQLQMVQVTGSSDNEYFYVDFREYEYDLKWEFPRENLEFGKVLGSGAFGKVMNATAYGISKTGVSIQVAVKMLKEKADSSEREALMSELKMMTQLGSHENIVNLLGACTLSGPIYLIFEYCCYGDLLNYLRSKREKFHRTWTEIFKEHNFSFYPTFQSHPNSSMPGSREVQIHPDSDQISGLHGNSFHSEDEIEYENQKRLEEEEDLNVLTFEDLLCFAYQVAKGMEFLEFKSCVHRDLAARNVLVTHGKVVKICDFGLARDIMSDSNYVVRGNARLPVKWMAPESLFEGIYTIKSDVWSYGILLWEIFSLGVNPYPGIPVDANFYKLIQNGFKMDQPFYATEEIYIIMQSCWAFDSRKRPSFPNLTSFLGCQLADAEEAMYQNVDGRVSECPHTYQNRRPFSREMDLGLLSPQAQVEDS
Chain of LYN (P07948 whole entry): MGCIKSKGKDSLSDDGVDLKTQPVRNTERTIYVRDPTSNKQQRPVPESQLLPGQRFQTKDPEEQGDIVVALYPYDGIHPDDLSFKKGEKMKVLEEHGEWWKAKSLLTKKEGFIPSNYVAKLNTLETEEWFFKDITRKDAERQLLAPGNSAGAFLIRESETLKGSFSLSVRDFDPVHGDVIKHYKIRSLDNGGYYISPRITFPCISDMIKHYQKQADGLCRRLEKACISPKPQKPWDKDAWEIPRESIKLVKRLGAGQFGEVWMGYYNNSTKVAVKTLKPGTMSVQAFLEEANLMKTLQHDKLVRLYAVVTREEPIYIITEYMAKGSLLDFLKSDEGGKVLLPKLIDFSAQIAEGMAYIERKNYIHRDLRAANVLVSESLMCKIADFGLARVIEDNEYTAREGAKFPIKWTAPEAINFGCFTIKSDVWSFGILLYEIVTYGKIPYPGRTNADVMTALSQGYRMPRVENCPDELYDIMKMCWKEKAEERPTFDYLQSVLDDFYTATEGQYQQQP
Chain of Bruton Tyrosine Kinase (BTK) (Q06187 whole entry): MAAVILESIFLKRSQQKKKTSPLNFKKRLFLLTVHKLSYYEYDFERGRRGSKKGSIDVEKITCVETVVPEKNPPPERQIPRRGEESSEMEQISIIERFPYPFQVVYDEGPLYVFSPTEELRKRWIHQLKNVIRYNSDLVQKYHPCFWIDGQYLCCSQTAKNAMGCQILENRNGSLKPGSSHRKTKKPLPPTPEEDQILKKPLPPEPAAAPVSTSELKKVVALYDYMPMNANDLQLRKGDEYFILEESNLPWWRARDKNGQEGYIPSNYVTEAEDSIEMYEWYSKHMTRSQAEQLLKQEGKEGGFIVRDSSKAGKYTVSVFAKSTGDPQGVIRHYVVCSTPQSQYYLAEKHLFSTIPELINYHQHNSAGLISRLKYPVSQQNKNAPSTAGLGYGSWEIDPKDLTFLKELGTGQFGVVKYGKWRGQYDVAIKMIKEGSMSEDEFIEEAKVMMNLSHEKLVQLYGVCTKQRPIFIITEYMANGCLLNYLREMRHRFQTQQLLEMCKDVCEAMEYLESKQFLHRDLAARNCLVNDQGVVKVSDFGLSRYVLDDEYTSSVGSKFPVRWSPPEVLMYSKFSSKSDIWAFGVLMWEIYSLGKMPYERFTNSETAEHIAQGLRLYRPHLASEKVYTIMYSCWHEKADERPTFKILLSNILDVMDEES
Chain of BTK (Q06187 whole entry): as above
Chain of FGR (P09769 whole entry): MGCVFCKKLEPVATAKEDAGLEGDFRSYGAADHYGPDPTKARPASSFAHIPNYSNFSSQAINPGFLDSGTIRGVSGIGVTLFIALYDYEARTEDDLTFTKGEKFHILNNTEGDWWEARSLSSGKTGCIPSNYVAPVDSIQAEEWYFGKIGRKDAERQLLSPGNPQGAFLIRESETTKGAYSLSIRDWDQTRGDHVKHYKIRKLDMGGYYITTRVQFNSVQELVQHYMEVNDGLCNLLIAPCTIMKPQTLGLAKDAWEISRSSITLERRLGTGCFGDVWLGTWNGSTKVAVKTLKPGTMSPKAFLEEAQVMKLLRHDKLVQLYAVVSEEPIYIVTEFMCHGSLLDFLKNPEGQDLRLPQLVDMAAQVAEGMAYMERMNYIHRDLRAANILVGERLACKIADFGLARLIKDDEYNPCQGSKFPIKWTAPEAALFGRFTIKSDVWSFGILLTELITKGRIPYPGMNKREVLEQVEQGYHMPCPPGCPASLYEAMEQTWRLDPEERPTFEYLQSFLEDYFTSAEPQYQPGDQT

| SMILES | IC50 [1] [nM] | IC50 (FYN-Y531F) [nM] | IC50 (FGR) [nM] | IC50 (LCK) [nM] | IC50 (YES1) [nM] | IC50 (BLK) [nM] | IC50 (FYN) [nM] | IC50 (CRAP) [nM] | IC50 (BRK) [nM] | IC50 (FLT3) [nM] | IC50 (ARAF) [nM] | IC50 (FLT3-ITD) [nM] | IC50 (HCK) [nM] | IC50 (SRC) [nM] | IC50 (LYN) [nM] | IC50 (BTK) [nM] |
| --- | --- | --- | --- | --- | --- | --- | --- | --- | --- | --- | --- | --- | --- | --- | --- | --- |
| Nc1ncnc2c1c(-c1ccc(Oc3ccccc3)cc1)nn2C[C@@H]1SSC[C@@H]1O [46 A.] | 1000 to 10000 | 5 to 99 | 5 to 99 | 5 to 99 | < 5 | 5 to 99 | 5 to 99 | 1000 to 10000 | 5 to 99 | 5 to 99 | 1000 to 10000 | 100 to 999 | 5 to 99 | 100 to 999 | 100 to 999 | 5 to 99 |
| Nc1ncnc2c1c(-c1ccc(Oc3ccccc3)cc1)nn2C[C@@H]1SSC[C@H]1O [43 A.] | 1000 to 10000 | 5 to 99 | < 5 | < 5 | < 5 | < 5 | < 5 | 1000 to 10000 | 5 to 99 | 5 to 99 | 100 to 999 | 100 to 999 | < 5 | 100 to 999 | 5 to 99 | 5 to 99 |
| Nc1ncnc2c1c(-c1ccc(Oc3ccccc3)cc1)nn2C[C@H]1SSC[C@@H]1O [43 B.] | 100 to 999 | 100 to 999 | < 5 | < 5 | < 5 | 5 to 99 | < 5 | – | 5 to 99 | 100 to 999 | – | 100 to 999 | < 5 | 5 to 99 | 5 to 99 | 5 to 99 |
| Nc1ncnc2c1c(-c1ccc(Oc3ccccc3)cc1)nn2C[C@H]1SSC[C@H]1O [46 B.] | 1000 to 10000 | 5 to 99 | < 5 | < 5 | < 5 | < 5 | < 5 | 1000 to 10000 | 5 to 99 | 5 to 99 | 100 to 999 | 100 to 999 | 5 to 99 | 5 to 99 | 5 to 99 | 5 to 99 |
